Literature values as cited in patent US20210369631A1, “A LIPID-POLYMER HYBRID NANOPARTICLE” (NANOBRID INNOVATIONS PRIVATE LIMITED, priority 2019, published 2021).

Going from `O=C(CCCCCCC(=O)Nc1ccccc1)NO` [Vorinostat] to `CCC(=O)O[C@]1(C(=O)CCl)[C@@H](C)C[C@H]2[C@@H]3CCC4=CC(=O)C=C[C@]4(C)[C@@]3(F)[C@@H](O)C[C@@]21C` [clobetasol propionate], the “log P” value rises from 1.44 to 3.49.

For `COC1=C(OC)C(=O)C(C/C=C(\C)CC/C=C(\C)CC/C=C(\C)CC/C=C(\C)CC/C=C(\C)CC/C=C(\C)CC/C=C(\C)CC/C=C(\C)CC/C=C(\C)CCC=C(C)C)=C(C)C1=O` [coenzyme Q10], the “log P” value is given as 10.
